# Test results as given in patent EP3130339A1, “A COMPOUND FOR USE IN THE TREATMENT OF COMORBID ANXIETY DISORDER AND DEPRESSION DISORDER” (Aché Laboratórios Farmacêuticos S.A., priority 2015, dated 2017).
# Experiments:
# Type in all cases: in vivo
# [1] = test system: mice (RJ:NMRI, males); test: Bright/dark box test (clear/dark transition test); conditions: for Time spent in the clear compartment compared to vehicle % / Time spent in the clear compartment (seconds) (mean ± mean standard error): 30 minutes before the test; for Time spent in the clear compartment (seconds) (mean ± mean standard error): three-minute test
# Protocol: This model, also known as clear/dark transition test, is characterized as a model of conflict, based on the natural tendency to explore new environments versus avoidance of doing so, due to the potential possibility of the presence of aversive stimuli. It is an animal model based on independent behavior of conditioning, therefore, there is no need of learning. In rodents, this model is grounded in their natural aversion to excessively clear environments. This aversion is measured from the ansiogenic component expressed by lower exposure of the animal to the clear compartment.
# The method employed followed the procedure described by Crawley and Goodwin (Pharmacol. Biochem. Behav. 1981, 15, 695-699).
# The animals were placed on the clear field of a box comprising two compartments, one being illuminate and open (25 x 27 x 27 cm) and the other being dark and close (20 x 27 x 27 cm). Data on the length of stay in each compartment were collected over the three-minute test.
# This test aimed at obtaining a comparison profile of response of Compound (A) (3-(2-(-4-(2-methoxyphenyl)piperazin-1-yl)ethyl)quinazolin-4(3H)-one and Compound (B) 3-(2-(4-(2-cyanophenyl)piperazin-1-yl)ethyl)quinazolin-4(3H)-one with known compounds that act by different mechanisms. The comparative compounds were alprazolam (benzodiazepine), paroxetine (ISRS-type antidepressant), venlafaxine (IRSN-type antidepressant) and agomelatine (antidepressant that acts on melatonin and serotonin 5-HT2C receptor). The following doses were employed in this study: Table 1: Tested compounds, concentrations and route of administration.
# In this blind study, ten mice (RJ:NMRI, males) were employed per group. Clobazam (12 mg/Kg, i.p. route) was administered under the same study conditions as the reference compound. All compounds were administered 30 minutes before the test.
# The test data of the response of substances were analyzed comparing the groups treated with the control vehicle using one-way ANOVA followed by post-hoc analysis of Dunnett's test. The data of the reference substance obtained were analyzed using unpaired Student's t test.
# [2] = test system: Mice; test: Non-precipitated withdrawal test
# Text: This test aims at assessing how the sudden cessation of the administration of a medicine can be associated with the occurrence of withdrawal identifiable symptoms. The types of symptoms examined are feed changes, weight gain, body temperature and the occurrence of one or behavioral symptoms and others, such as tremor, teeth chattering, wet dog body-shaking, diarrhea or piloerection. The triggering of these signs is a first sign that the substance induces dependence after repeated administration.
# The method employed followed the procedure described by Goudie and Leathley (Psychopharmacology 1991, 103: 529-537).
# Two mice per cage received two administrations per day (approximately 10:00 hours and 16:00 hours) of the test substance continuously during 19 days (day 1 to day 19), with the last administration occurring next to 10:00 hours of the 20th day. Control animals received the same number of administrations of vehicle. […] During the discontinuation phase, all animals received administration of vehicle once a day.
# Additionally to the observations made after discontinuing the medicines, the same measures were taken at day 1 and day 10 of treatment, in addition to the 3 last days (days 18 to 20) immediately prior to administration of the dose in the morning to assess the effects of medicines before discontinuation. After discontinuation, the first observation was performed 24 hours after the last administration and, from then on, every 24 hours (days 21 to 28).
# For daily measurements, the animals were evaluated with respect to behavioral changes during 5 minutes (two animals simultaneously observed). Then, their body weights and rectal temperatures were measured. Then, they received the proper treatment and were returned to their cages.
# The leftover food in their supporters was weighed immediately after all animals return to their cages (only in the mornings), and food consumption in the previous 24 hours was determined.
# The body weights, feed consumption and rectal temperatures were also measured 24 hours before the first administration, as reference values. The treated groups were homogenized with regard to body weights on the day preceding the first administration of the tested substances.
# Compound (A) (3-(2-(-4-(2-methoxyphenyl)piperazin-1-yl)ethyl)quinazolin-4 (3H)-one) was evaluated in 3 doses (3, 10 and 30 mg/kg) administered orally (p.o.) and compared to the vehicle (control group).
# Chlordiazepoxide (64 mg/kg, p.o.) was administered under the same experimental conditions, and was employed as reference substance in the test.
# Paroxetine (15 and 30 mg/kg p.o.) was administered under the same experimental conditions and was used as comparative substance.
# The test was blinded. Data were analyzed by comparing substances with their control vehicles employing one-way ANOVA with the group as a factor followed by post-hoc Dunnett tests. Data with the reference substance were analyzed using unpaired Student's t test.
# [3] = test system: Mice; test: Sphere hiding test; conditions: for Number of Hidden Spheres (mean ± mean standard error): 25 glass spheres, counted at the end of 30 minutes
# Protocol: This test is based on the natural aversive behavior to glass and marble of rodents, where the presence of these objects triggers the action of burying (hiding). In this test, there are potential behavioral changes of medicines that may promote an ansiogenic or anxiolytic profile. This is determined by the increase or decrease of the behavior of hiding glass spheres ("marbles") that are randomly distributed on the surface of a box lined with sawdust. The increase of the number of covered balls is an indicative of anxiety, since it is supposed to represent a foreign agent to the animal, whose presence may pose threat. The administration of anxiolytics medicines decreases the number of spheres buried in non-sedative doses.
# The method employed followed the procedure described by Broekkamp et al. (Eur. J. Pharmacol., 1986, 126, 223-229).
# Mice were individually placed in transparent plastic cages (33 x 21 x 18 cm), with the floor covered by a 5 cm layer of sawdust and 25 glass spheres grouped in the center of the cage. The cage was covered with a perforated plastic cover. Each test cage, along with the glass spheres, were previously impregnated with "mouse odor", and a group of 10 mice was left inside for 15 minutes.
# The number of glass spheres covered with sawdust (2/3 or more of the surface) was counted at the end of the 30 minutes of the test.
# Each study group consisted of 12 mice. The test was partially blind (substances tested versus vehicle of the tested substances).
# This test aimed at obtaining a comparison profile of response of Compound (A) (3-(2-(-4-(2-methoxyphenyl)piperazin-1-yl) ethyl) quinazolin-4 (3H) -one and Compound (B) (3-(2-(4-(2-cyanophenyl)piperazin-1-yl)ethyl)quinazolin-4(3H)-one) with known compounds that act by different mechanisms. The comparative compounds used were alprazolam (benzodiazepine) and paroxetine (ISRS-type antidepressant). These compounds were tested in the following doses: Table 3: Compounds tested, concentrations employed and route of administration.
# Fluoxetine (ISRI antidepressant) was used as the positive control substance in the test, and was administered at 32 mg/kg (i.p.).
# Quantitative data for the tested substances (number of glass spheres coated with sawdust) were evaluated by comparison with the treated groups using one-way ANOVA followed by planned comparisons against the appropriate vehicles. Data with fluoxetine were compared to the vehicle control using unpaired Student's t test.
# [4] = 12 mg/Kg i.p., reference compound
# [5] = withdrawal phase, 64 mg/kg p.o.
# [6] = 32 mg/kg i.p., positive control
# [7] = dose given in Table 4 as (4), i.p.
# [8] = dose given in Table 4 as (8), i.p.
structure (smiles),measurement,setting,value
CN1C(=O)CC(=O)N(c2ccccc2)c2cc(Cl)ccc21 [Clobazam],Time spent in the clear compartment compared to vehicle %,[1]; [4],+41%
same,Time spent in the clear compartment (seconds) (mean ± mean standard error),[1]; [4],104.0 ± 5.2 s
"Fc1ccc([C@@H]2CCNC[C@H]2COc2ccc3c(c2)OCO3)cc1 [Paroxetine, paroxetine]",withdrawal syndrome after an extended administration regimen,"[2]; mouse, in vivo, po",induces mild withdrawal syndrome
same,amount of food consumed,"[2]; mouse, in vivo, po, 30 mg/kg",significant increase in the amount of food consumed
same,body weight and food consumption,"[2]; mouse, in vivo, po, 30 mg/kg",significantly induced weight loss and reduction of food consumption
same,Time spent in the clear compartment compared to vehicle %,[1]; 4 mg/Kg i.p.,+15%
same,Time spent in the clear compartment (seconds) (mean ± mean standard error),[1]; 4 mg/Kg i.p.,84.6 ± 7.4 s
same,Time spent in the clear compartment compared to vehicle %,[1]; 8 mg/Kg i.p.,-6%
same,Time spent in the clear compartment (seconds) (mean ± mean standard error),[1]; 8 mg/Kg i.p.,69.3 ± 5.9 s
same,Time spent in the clear compartment compared to vehicle %,[1]; 16 mg/Kg i.p.,-13%
same,Time spent in the clear compartment (seconds) (mean ± mean standard error),[1]; 16 mg/Kg i.p.,63.8 ± 8.2 s
same,Number of Hidden Spheres Compared to vehicle control %,[3]; 1.0 mg/kg i.p.,-56%
same,Number of Hidden Spheres (mean ± mean standard error),[3]; 1.0 mg/kg i.p.,"8,4 ± 2,3"
"COc1ccc2cccc(CCNC(C)=O)c2c1 [Agomelatine, agomelatine]",Time spent in the clear compartment compared to vehicle %,[1]; 25 mg/Kg i.p.,-12%
same,Time spent in the clear compartment (seconds) (mean ± mean standard error),[1]; 25 mg/Kg i.p.,64.7 ± 4.9 s
same,Time spent in the clear compartment compared to vehicle %,[1]; 50 mg/Kg i.p.,-4%
same,Time spent in the clear compartment (seconds) (mean ± mean standard error),[1]; 50 mg/Kg i.p.,70.6 ± 8.5 s
same,Time spent in the clear compartment compared to vehicle %,[1]; 75 mg/Kg i.p.,-3%
same,Time spent in the clear compartment (seconds) (mean ± mean standard error),[1]; 75 mg/Kg i.p.,71.3 ± 7.3 s
CNC1=Nc2ccc(Cl)cc2C(c2ccccc2)=[N+]([O-])C1 [Chlordiazepoxide],withdrawal syndrome after an extended administration regimen,"[2]; overall conclusion of the test, p.o., two administrations per day, day 1 to 20",induces a clear withdrawal syndrome
same,behavioral and psychological effects,"[2]; treatment phase, 64 mg/kg p.o.","ptosis, hyperactivity, jumps and dyspnoea"
same,body weight and amount of food consumed,"[2]; treatment phase, 64 mg/kg p.o.",did not induce significant changes
same,rectal temperature,"[2]; treatment phase, 64 mg/kg p.o.",slight increase of rectal temperature
same,behavioral and psychological effects,[2]; [5],"intensified the psychological behaviors and symptoms, mainly dyspnoea and hyperactivity, inducing occasional straub tail and teeth chattering"
same,"body weight, amount of food consumed and rectal temperature",[2]; [5],"clear reduction in body weight and the amount of food consumed, and a significant increase of rectal temperature"
"COc1ccc(C(CN(C)C)C2(O)CCCCC2)cc1 (stereo not drawn) [Venlafaxine, venlafaxine]",Time spent in the clear compartment compared to vehicle %,[1]; 8 mg/Kg i.p.,-2%
same,Time spent in the clear compartment (seconds) (mean ± mean standard error),[1]; 8 mg/Kg i.p.,72.3 ± 7.3 s
same,Time spent in the clear compartment compared to vehicle %,[1]; 16 mg/Kg i.p.,-12%
same,Time spent in the clear compartment (seconds) (mean ± mean standard error),[1]; 16 mg/Kg i.p.,65.1 ± 6.0 s
same,Time spent in the clear compartment compared to vehicle %,[1]; 32 mg/Kg i.p.,+7%
same,Time spent in the clear compartment (seconds) (mean ± mean standard error),[1]; 32 mg/Kg i.p.,78.9 ± 4.9 s
CNCCC(Oc1ccc(C(F)(F)F)cc1)c1ccccc1 (stereo not drawn) [Fluoxetine],Number of Hidden Spheres Compared to vehicle control %,[3]; [6],-74%
same,Number of Hidden Spheres (mean ± mean standard error),[3]; [6],4.9 ± 2.0
"N#Cc1ccccc1N1CCN(CCn2cnc3ccccc3c2=O)CC1 [Compound (B), 3-(2-(4-(2-cyanophenyl)piperazin-1-yl)ethyl)quinazolin-4(3H)-one]",Time spent in the clear compartment compared to vehicle %,[1]; 4 mg/Kg i.p.,+37%
same,Time spent in the clear compartment (seconds) (mean ± mean standard error),[1]; 4 mg/Kg i.p.,100.9 ± 15.2 s
same,Time spent in the clear compartment compared to vehicle %,[1]; 8 mg/Kg i.p.,+40%
same,Time spent in the clear compartment (seconds) (mean ± mean standard error),[1]; 8 mg/Kg i.p.,103.0 ± 11.5 s
same,Time spent in the clear compartment compared to vehicle %,[1]; 16 mg/Kg i.p.,+103%
same,Time spent in the clear compartment (seconds) (mean ± mean standard error),[1]; 16 mg/Kg i.p.,149.3 ± 11.0 s
same,permanence time in the clear compartment (result in words),"[1]; summary of Table 2 over the doses tested, i.p.",efficient in extending the permanence time in the clear compartment
same,Number of Hidden Spheres Compared to vehicle control %,[3]; [7],-42%
same,Number of Hidden Spheres (mean ± mean standard error),[3]; [7],11.0 ± 3.3
same,Number of Hidden Spheres Compared to vehicle control %,[3]; [8],-89%
same,Number of Hidden Spheres (mean ± mean standard error),[3]; [8],2.1 ± 2.1
same,number of hidden spheres (result in words),"[3]; summary of Table 4 over the doses tested, i.p.",significantly reduced the number of hidden spheres
